Measurements: paper PMC5589637, “New perspectives of cobalt tris(bipyridine) system: anti-cancer effect and its collateral sensitivity towards multidrug-resistant (MDR) cancers” (Oncotarget, 2017)

Experiments:
[1] = test system: HCT116 p53^-/- colon cancer cells; assay: MTT cytotoxicity, HCT116 p53-/-; assay type: cell-based, human
Text: (§1) All cells were obtained from the American Type Culture Collection (Rockville, MD, USA) unless otherwise specified. Immortalized wild-type and Atg7-deficient mouse embryonic fibroblasts (MEFs) were kindly provided by Professor Masaaki Komatsu (Juntendo University, School of Medicine, Japan). Taxol-resistant types of MCF-7, HCT-8, A549 cancers cells and cisplatin-resistant SGC7901 cancer cells were purchased from KeyGEN BioTECH, China. Cisplatin-sensitive or –resistant A2780, OV2008 and C13 cancer cells were kindly provided by Prof. Benjamin Tsang (Department of Obstetrics and Gynecology and Department of Cellular and Molecular Medicine, University of Ottawa, Canada). HCT116 p53^+/+ and p53^−/− isogenic human colon cancer cells were kindly provided by Professor Bert Vogelstein (Ludwig Center at Johns Hopkins, Howard Hughes Medical Institute, USA). All media were supplemented with 10% fetal bovine serum and antibiotics penicillin (50 U/ml) and streptomycin (50 μg/ml; Invitrogen, Paisley, Scotland, UK). All cell cultures were incubated at 37°C in a 5% humidified CO2 incubator.
(§2) All tested compounds were dissolved in DMSO at a final concentration of 50 mmol/L and stored at −20°C before use. Cytotoxicity was assessed by using the 3-(4,5-dimethylthiazol-2-yl)-2, 5-diphenyltetrazolium bromide (MTT) (5.0 mg/ml) assay as previously described. Briefly, 4×10^3 cells per well were seeded in 96-well plates before drug treatments. After overnight culture, the cells were then exposed to different concentrations of selected compounds ([…]) for 72 hours. Cells without drug treatment were used as control. Subsequently, MTT (10 μL) solution was added to each well and incubated at 37°C for 4 hours followed by the addition of 100 μL solubilization buffer (10%SDS in 0.01 mol/L HCl) and overnight incubation. A570 nm was then determined in each well on the next day. The percentage of cell viability was calculated using the following formula: Cell viability (%) = Atreated/Acontrol × 100. Data were obtained from three independent experiments.

[2] = test system: LLC-1 (mouse lung cancer) cells; assay: MTT cytotoxicity assay, LLC-1; assay type: cell-based; conditions: LLC-1, MTT, 72 h
Protocol: as §2

[3] = test system: H1299 lung cancer cells; assay: Cell invasion assay (ECMatrix chamber); assay type: cell-based, human; conditions: H1299, 72 h, sub-lethal doses, OD 560 nm
Protocol: The H1299 cancer cell invasion assay was performed in a Cell Invasion Chamber, a 24-well tissue culture plate with cell culture inserts that contain an 8 μm pore size polycarbonate membrane over a thin layer of dried ECMatrix^TM (CHEMICON). H1299 cells (15000 cells/well) were re-suspended in serum-free medium and incubated in an invasion chamber insert with different concentrations of cobalt complex 2 for 72 hours, while the lower chamber contained medium with 10% FBS. The cells invaded through the ECM layer to the bottom of the polycarbonate membrane were labelled with Cell Stain provided in the kit for 20 min at room temperature. The non-invading cells were gently removed from the interior of the inserts by using a cotton-tipped swab. The number of invaded cells was counted through the microscope and quantified by dissolving stained cells in 10% acetic acid (200 μL/well). The colorimetric reading of the solute mixture was determined by spectrophotometer at OD 560 nm.

[4] = test system: A549 taxol-sensitive cancer cells; assay: MTT cytotoxicity, taxol-sensitive A549; assay type: cell-based; conditions: 72 h
Text: as §1, §2

[5] = Pharmacokinetic study (HPLC-MS of blood samples); assay type: in vivo; conditions: male C57BL/6 mice
Protocol: Pharmacokinetic study of cobalt complex 2 was performed in male C57BL/6 mice by the dosage of 40 mg/kg. The source of mouse and practice of husbandry were the same as described in the methodology section of LLC-1 Xenograft Tumor experiment. Cobalt complex 2 was diluted in the formula (PEG400: H2O: Ethanol = 6:3:1) and administered by intraperitoneal in a volume of 0.005 mL/g bodyweight. After dosing, blood samples were collected to sodium heparin anticoagulant tube at different time points (5, 15, 30 min, and then 1, 2, 4, 8, 12 and 24 hours); 4 mice were used for each time point. Approximately 200 μL of blood was collected via orbital vein from each anesthetized mouse by isoflurane. Plasma was separated by centrifugation at 3000 g for 10 minutes at 4°C. The plasma was protected and stored at −80°C until analyzed by liquid chromatography-mass spectrometry/mass spectrometry (LC-MS/MS) for quantification.
Plasma samples were thawed at room temperature and then vortexed to ensure sample solution homogeneity. Firstly, a 20 μL aliquot of each plasma sample were loaded into 1.5 mL tube, 100 μL acetonitrile was added, vortexed then centrifuged at 13000 rpm for 10 min. the supernatant was collected. The plasma cobalt complex 2 concentrations were quantified using Thermo HPLC Ultimate 3000 system. The compound in plasma samples were analyzed by using the Agilent Zorbax Eclipse Plus C-18 column with a particle size of 1.8 μm. The parameters of the gradient elution program were applied as follows: mobile phase A (0.1% formic acid in water) and mobile phase B acetonitrile: 0–5.5 min, 20% B; 5.5–7 min, 90% B; 7–10 min, 20% B. The column and autosampler temperature were maintained at 40 and 4 °C, respectively. The gas temperature was set 320 °C with flow rate (0.8 mL/min), gases were set at 10 psi for the nebulizer, capillary, 3500 V.

[6] = test system: HeLa cancer cells; assay: Western blot of autophagy markers; assay type: cell-based
Protocol: Western blot analysis was carried out following standard methods. Cells were lysed with RIPA lysis buffer with protease and phosphatase inhibitor cocktails. Protein concentrations were determined using the Bio-Rad protein assay (Bio-Rad Laboratories, Inc., Hercules, CA, USA). After electrophoresis, the proteins from SDS/PAGE were electro-transferred to a Hybond enhanced chemiluminescence nitrocellulose membrane (Amersham Biosciences, NJ, USA), which was then blocked with 5% dried milk for 1 hour. After washing, the blot was incubated with the indicated primary antibodies overnight at 4°C. Detection was performed using appropriated HRP-conjugated secondary antibodies for 1 hour at RT followed by chemiluminescence (Invitrogen).

[7] = test system: HCT116 p53^+/+ colon cancer cells; assay: MTT cytotoxicity, HCT116 p53+/+; assay type: cell-based, human; conditions: 72 h
Text: as §1, §2

[8] = test system: MCF-7 (breast cancer) cells; assay: MTT cytotoxicity assay, MCF-7; assay type: cell-based; conditions: MCF-7, MTT, 72 h
Protocol: as §2

In the case of `Cc1ccnc(-c2cc(C)ccn2)c1.Cc1ccnc(-c2cc(C)ccn2)c1.Cc1ccnc(-c2cc(C)ccn2)c1.F[P-](F)(F)(F)(F)F.F[P-](F)(F)(F)(F)F.F[P-](F)(F)(F)(F)F.[Co+3]` [complex 2, [Co^III(4,4’-Me2-bpy)3](PF6)3], the IC50 ([1]; HCT116 p53-/-, MTT, 72 h) is reported as 9.07 µM, the “Resistant Factor, HCT116 p53-/- vs p53+/+” value ([1]; IC50 p53-/- over IC50 p53+/+) is reported as 0.59 and the IC50 [2] is reported as 3.39 µM. For the same compound, the “cell invasion (absorbance signal of invaded cells)” value [3] was “dose-dependently decrease the absorbance signal”, the IC50 [4] was 11.5 µM and the “species detected in blood samples by HPLC-MS” value ([5]; 40 mg/kg intraperitoneal of complex 2, 5 min to 24 hours) was “neither cobalt complex 2 nor its decomposed species was observed”. The metabolism after absorption ([5]; 40 mg/kg intraperitoneal, after 2-hour time interval) was “almost complete metabolism”, the “protein expression of p62 and P-p70S6K” value ([6]; 10μM and 15μM) was “prominently reduced” and the LC3-II protein conversion ([6]; 24 h) was “dose-dependently increased the LC3-II protein conversion”. For the same compound, the “expression of beclin-1 protein” value ([6]; 24 h, vs untreated control) was “upregulated”, the IC50 [7] was 15.4 µM and the IC50 [8] was 6.03 µM.
